Legend:
Assay in all cases: relative viability (nuclei count vs DMSO), 5 days (fraction); higher = more cells survive
HOP-62 = test system: HOP-62
Procedure, shortened: (§1)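 Lung cancer cell lines were seeded in 1536-well plates and dosed by pin tool the next day, with either a single drug or a fixed anchor-drug dose combined with five library-drug doses (not always all listed) spaced in √10 steps. Five days later, one step fixed the cells and stained their nuclei (final 0.05% Triton X-100, 1% formaldehyde, 1 ug/ml Hoechst), and nuclei were counted on 4× images. Relative viability is the nuclei count in treated wells divided by the count in vehicle wells, and each value is the median of duplicate plates.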

NCI-H647 = test system: NCI-H647
Procedure, shortened: as §1

HCC-827 = test system: HCC-827
Procedure, shortened: as §1

NCI-H596 = test system: NCI-H596
Procedure, shortened: as §1

NCI-H2170 = test system: NCI-H2170
Procedure, shortened: as §1

SW 900 = test system: SW 900
Procedure, shortened: as §1

NCI-H1563 = test system: NCI-H1563
Procedure, shortened: as §1

BEN = test system: BEN
Procedure, shortened: as §1

NCI-H358 = test system: NCI-H358
Procedure, shortened: as §1

NCI-H322M = test system: NCI-H322M
Procedure, shortened: as §1

NCI-H1666 = test system: NCI-H1666
Procedure, shortened: as §1

NCI-H838 = test system: NCI-H838
Procedure, shortened: as §1

NCI-H520 = test system: NCI-H520
Procedure, shortened: as §1

PC-14 = test system: PC-14
Procedure, shortened: as §1

LU99A = test system: LU99A
Procedure, shortened: as §1

UMC-11 = test system: UMC-11
Procedure, shortened: as §1

NCI-H1792 = test system: NCI-H1792
Procedure, shortened: as §1

EPLC-272H = test system: EPLC-272H
Procedure, shortened: as §1

NCI-H23 = test system: NCI-H23
Procedure, shortened: as §1

NCI-H1355 = test system: NCI-H1355
Procedure, shortened: as §1

NCI-H2405 = test system: NCI-H2405
Procedure, shortened: as §1

NCI-H1975 = test system: NCI-H1975
Procedure, shortened: as §1

NCI-H3122 = test system: NCI-H3122
Procedure, shortened: as §1

CCCCCCCCCCCC1=C(O)C(=O)C=C(O)C1=O [Embelin] + Nc1nc2[nH]cc(CCc3ccc(C(=O)N[C@@H](CCC(=O)O)C(=O)O)cc3)c2c(=O)[nH]1 [Pemetrexed] (partner 0.2 µM)
relative viability (HOP-62; first compound 0.08 µM): 0.384 | relative viability (HOP-62; first compound 0.8 µM): 0.365 | relative viability (HOP-62; first compound 2.53 µM): 0.308 | relative viability (HOP-62; first compound 8 µM): 0.303 | relative viability (NCI-H647; first compound 0.08 µM): 0.19 | relative viability (NCI-H647; first compound 0.8 µM): 0.246 | relative viability (NCI-H647; first compound 2.53 µM): 0.169 | relative viability (NCI-H647; first compound 8 µM): 0.214 | relative viability (HCC-827; first compound 0.08 µM): 0.26 | relative viability (HCC-827; first compound 0.8 µM): 0.284 | relative viability (HCC-827; first compound 2.53 µM): 0.285 | relative viability (HCC-827; first compound 8 µM): 0.259 | relative viability (NCI-H596; first compound 0.08 µM): 0.478 | relative viability (NCI-H596; first compound 0.8 µM): 0.507 | relative viability (NCI-H596; first compound 2.53 µM): 0.53 | relative viability (NCI-H596; first compound 8 µM): 0.445 | relative viability (NCI-H2170; first compound 0.08 µM): 0.264 | relative viability (NCI-H2170; first compound 0.8 µM): 0.252 | relative viability (NCI-H2170; first compound 2.53 µM): 0.276 | relative viability (NCI-H2170; first compound 8 µM): 0.274 | relative viability (SW 900; first compound 0.08 µM): 0.495 | relative viability (SW 900; first compound 0.8 µM): 0.527 | relative viability (SW 900; first compound 2.53 µM): 0.52 | relative viability (SW 900; first compound 8 µM): 0.473 | relative viability (NCI-H1563; first compound 0.08 µM): 0.742 | relative viability (NCI-H1563; first compound 0.8 µM): 0.767 | relative viability (NCI-H1563; first compound 2.53 µM): 0.693 | relative viability (NCI-H1563; first compound 8 µM): 0.713 | relative viability (BEN; first compound 0.08 µM): 0.763 | relative viability (BEN; first compound 0.8 µM): 0.823 | relative viability (BEN; first compound 2.53 µM): 1.03 | relative viability (BEN; first compound 8 µM): 0.731 | relative viability (NCI-H358; first compound 0.08 µM): 0.217 | relative viability (NCI-H358; first compound 0.8 µM): 0.193 | relative viability (NCI-H358; first compound 2.53 µM): 0.178 | relative viability (NCI-H358; first compound 8 µM): 0.175 | relative viability (NCI-H322M; first compound 0.08 µM): 0.598 | relative viability (NCI-H322M; first compound 0.8 µM): 0.625 | relative viability (NCI-H322M; first compound 2.53 µM): 0.646 | relative viability (NCI-H322M; first compound 8 µM): 0.667 | relative viability (NCI-H1666; first compound 0.08 µM): 0.922 | relative viability (NCI-H1666; first compound 0.8 µM): 0.894 | relative viability (NCI-H1666; first compound 2.53 µM): 0.849 | relative viability (NCI-H1666; first compound 8 µM): 0.817 | relative viability (NCI-H838; first compound 0.08 µM): 0.271 | relative viability (NCI-H838; first compound 0.8 µM): 0.238 | relative viability (NCI-H838; first compound 2.53 µM): 0.252 | relative viability (NCI-H838; first compound 8 µM): 0.247 | relative viability (NCI-H520; first compound 0.08 µM): 0.656 | relative viability (NCI-H520; first compound 0.8 µM): 0.852 | relative viability (NCI-H520; first compound 2.53 µM): 0.708 | relative viability (NCI-H520; first compound 8 µM): 0.821 | relative viability (PC-14; first compound 0.08 µM): 0.158 | relative viability (PC-14; first compound 0.8 µM): 0.126 | relative viability (PC-14; first compound 2.53 µM): 0.134 | relative viability (PC-14; first compound 8 µM): 0.153 | relative viability (LU99A; first compound 0.08 µM): 0.182 | relative viability (LU99A; first compound 0.8 µM): 0.178 | relative viability (LU99A; first compound 2.53 µM): 0.15 | relative viability (LU99A; first compound 8 µM): 0.192 | relative viability (UMC-11; first compound 0.08 µM): 0.812 | relative viability (UMC-11; first compound 0.8 µM): 0.849 | relative viability (UMC-11; first compound 2.53 µM): 0.928 | relative viability (UMC-11; first compound 8 µM): 0.806 | relative viability (NCI-H1792; first compound 0.08 µM): 0.815 | relative viability (NCI-H1792; first compound 0.8 µM): 0.817 | relative viability (NCI-H1792; first compound 2.53 µM): 1.06 | relative viability (NCI-H1792; first compound 8 µM): 0.382 | relative viability (EPLC-272H; first compound 0.08 µM): 0.361 | relative viability (EPLC-272H; first compound 0.8 µM): 0.302 | relative viability (EPLC-272H; first compound 2.53 µM): 0.331 | relative viability (EPLC-272H; first compound 8 µM): 0.247 | relative viability (NCI-H23; first compound 0.08 µM): 0.786 | relative viability (NCI-H23; first compound 0.8 µM): 0.675 | relative viability (NCI-H23; first compound 2.53 µM): 0.589 | relative viability (NCI-H23; first compound 8 µM): 0.665 | relative viability (NCI-H1355; first compound 0.08 µM): 1.06 | relative viability (NCI-H1355; first compound 0.8 µM): 1.13 | relative viability (NCI-H1355; first compound 2.53 µM): 1.12 | relative viability (NCI-H1355; first compound 8 µM): 0.784 | relative viability (NCI-H2405; first compound 0.08 µM): 1.09 | relative viability (NCI-H2405; first compound 0.8 µM): 1.15 | relative viability (NCI-H2405; first compound 2.53 µM): 1.18 | relative viability (NCI-H2405; first compound 8 µM): 0.818 | relative viability (NCI-H1975; first compound 0.08 µM): 0.313 | relative viability (NCI-H1975; first compound 0.8 µM): 0.286 | relative viability (NCI-H1975; first compound 2.53 µM): 0.285 | relative viability (NCI-H1975; first compound 8 µM): 0.311 | relative viability (NCI-H3122; first compound 0.08 µM): 0.193 | relative viability (NCI-H3122; first compound 0.8 µM): 0.202 | relative viability (NCI-H3122; first compound 2.53 µM): 0.202 | relative viability (NCI-H3122; first compound 8 µM): 0.2
